Laboratory results from patent publication US20230063059A1, “SUBSTANCE INTERACTING WITH C TERMINAL FRAGMENT OF THE STIM1 FRACTION LOCALIZED TO THE PLASMA MEMBRANE OF THE CELLS, FOR ITS USE IN THE TREATMENT OF CANCERS, AND IN SCREENING AND DIAGNOSTIC METHODS” (UNIVERSITÉ DE BRETAGNE OCCIDENTALE - UBO, priority 2019, published 2023).

Tests used:
Type in all cases: cell-based
Details in all cases: Gemcitabine alone, low dose 15 nM, 48 hours
[1] = tested on: Panc-1-Wt pancreatic cancer cells; test: Cell survival, CCK8 kit
Description: (§1) For cell proliferation, cytotoxicity, and cell survival measurements, […] were seeded in 96 wells plates in 100 μL of DMEM medium. Cells were incubated for 48H hours at 37° C. with an anti-STIM1 antibody targeting the C terminal of STIM1 (CDN3H4, Santa Cruz; HPA011088 or HPA012123 clones, Sigma). Cell proliferation was evaluated using the Cell Titer kit proliferation assay (Promega). Cytotoxicity was evaluated using the Cell Tox green cytotoxicity assay (Promega) and cell survival measured using the CCK8 kit from Sigma. All these kits were used following manufacturer recommendations and using a plate reader
as §1, with “with 5 μg/ml of the” for “with an”, “Santa Cruz) alone, with 15 nM Gemcitabine alone” for “Santa Cruz; HPA011088”, “or with both 5 ug/ml of the anti-STIM1 clone CDN3H4 and 15 nM Gemcitabine. Relevant controls (isotype or/and DMSO treatments) were also realized.” for “or HPA012123 clones, Sigma).”

[2] = tested on: Panc-1-Wt pancreatic cancer cells; test: Cell proliferation, Cell Titer kit proliferation assay
Description: as §1
as §1, with “with 5 μg/ml of the” for “with an”, “Santa Cruz) alone, with 15 nM Gemcitabine alone” for “Santa Cruz; HPA011088”, “or with both 5 ug/ml of the anti-STIM1 clone CDN3H4 and 15 nM Gemcitabine. Relevant controls (isotype or/and DMSO treatments) were also realized.” for “or HPA012123 clones, Sigma).”

[3] = tested on: Panc-1-Wt pancreatic cancer cells; test: Cytotoxicity, Cell Tox green cytotoxicity assay
Description: as §1
as §1, with “with 5 μg/ml of the” for “with an”, “Santa Cruz) alone, with 15 nM Gemcitabine alone” for “Santa Cruz; HPA011088”, “or with both 5 ug/ml of the anti-STIM1 clone CDN3H4 and 15 nM Gemcitabine. Relevant controls (isotype or/and DMSO treatments) were also realized.” for “or HPA012123 clones, Sigma).”

## Nc1ccn([C@@H]2O[C@H](CO)[C@@H](O)C2(F)F)c(=O)n1 [Gemcitabine]
[1]
  survival of pancreatic cancer cells: slightly but significantly reduce
[2]
  proliferation of pancreatic cancer cells: slightly but significantly reduce
[3]
  cell cytotoxicity: without inducing cell cytotoxicity
